Where two headings read alike, the source gives them in different places.
Columns and labels:
[1] = tested on: MET Apt-AuNP (biotin-ended MET aptamer) (DNA, aptamer) AGGAATTCAGATCTCCCTGCAGAAAACAGACCACCCACTTTGAATCCACTTGACTCGAGGAGCTCAGGATCCCG; assay: competitive lateral flow assay
[2] = tested on: COC Apt-AuNP (biotin-ended COC aptamer) (DNA, aptamer) AGGAATTCAGATCTCCCTGCAGTTCGAGGAAGAATAGACCTGCCTTCTAATAGCTCGAGGAGCTCAGGATCCCG; assay: competitive lateral flow assay
[3] = tested on: COC aptamer (DNA, aptamer) AGGAATTCAGATCTCCCTGCAGTTCGAGGAAGAATAGACCTGCCTTCTAATAGCTCGAGGAGCTCAGGATCCCG; assay: isothermal titration calorimetry; settings: 100 mM NaCl, 2.7 mM KCl, 2 mM MgCl2
[4] = tested on: MET aptamer (DNA, aptamer) AGGAATTCAGATCTCCCTGCAGAAAACAGACCACCCACTTTGAATCCACTTGACTCGAGGAGCTCAGGATCCCG; assay: isothermal titration calorimetry; settings: 100 mM NaCl, 2.7 mM KCl, 2 mM MgCl2

binding [1]	binding [2]	Kd [3]	binding ([2]; synthetic saliva, gold nanoparticle conjugate, COC-BSA test line, positive at 5.0 ng/mL to 1.0 µg/mL)	Kd [4]	binding ([2]; synthetic saliva, gold nanoparticle conjugate, COC-BSA test line)	Structure (SMILES)
no	no					COc1ccc2c3c1O[C@H]1[C@@H](O)C=C[C@H]4[C@@H](C2)N(C)CC[C@@]341
no	no					CCCCCc1cc(O)c2c(c1)OC(C)(C)[C@@H]1CCC(C)=C[C@@H]21
no		0.306 µM	yes			COC(=O)[C@H]1[C@@H](OC(=O)c2ccccc2)C[C@@H]2CC[C@H]1N2C
yes				0.57 µM	no	CN[C@@H](C)Cc1ccccc1
